# Results as given in patent US20240261295A1, “COMBINATIONS OF WEE1 INHIBITORS AND ANTI-CD47 ANTIBODIES” (Recurium IP Holdings, LLC, priority 2021, published 2024).
# Tested on: RPMI-8226 cells
# Experiment: RPMI-8226 xenograft model, tumor volume
# Assay type: in vivo, Mice
# Conditions: ZN-c3 60 mg/kg p.o. qd×21, single agent, RPMI-8226 subcutaneous xenograft
# Protocol: Mice were inoculated with RPMI-8226 cells subcutaneously on the right flank with the single cell suspension of 95% viable tumor cells ([…]) in 100 μL RPMI 1640 Matrigel mixture (1:1 ratio) without serum for the tumor development. The treatment was started when the mean tumor size reached approximately 200 mm^3, with individual tumor size ranging from 185-235 mm^3. Animals were randomly distributed into treatment groups of 10 animals each and dosed with vehicle and indicated compounds at the indicated dosage and frequency shown in FIG. 2 and Table 1. In FIG. 2, the bottom line with circles is ZN-c3 60 mg/kg p.o. qd×21+Anti-CD47 20 mg/kg ip BIW×3. Anti-CD47 was obtained from Bio X Cell (clone B6.H12, catalog number BE0019-1). Tumor volumes were evaluated twice per week to calculate tumor volume over time, and the mice were weighed twice per week as a surrogate for signs of toxicity. Tumor growth inhibition (TGI) was calculated using the following equation TGI=(1−(Td−T0)/(Cd−C0))×100%. Td and Cd are the mean tumor volumes of the treated and control animals, and T0 and C0 are the mean tumor volumes of the treated and control animals at the start of the experiment. The tumor regression was defined as individual tumor volume (TV) decrease (terminal TV compared to initial TV). The percent tumor regression was calculated using the formula: (1−(Td/T0))×100%.
compound,measurement,value
C=CCn1c(=O)c2cnc(Nc3ccc(N4CCN(C)CC4)cc3)nc2n1-c1ccc2c(n1)[C@@](O)(CC)CC2 [ZN-c3],TGI % (Day 21),61%
